Test [1] deals with myosin II. The test can be described thus: Myosin II cortical localization by SIM, TIRF and confocal imaging. Type of test: cell-based, Dictyostelium discoideum. The note with it: myoII null cells.
The target in test [2] is T1, myosin II (Dictyostelium discoideum, UniProt P08799, S456L).
T1 construct: expressed in transfected cells; host or cells: Dictyostelium discoideum myoII null cells rescued with GFP-myosin II
The description is as above. Type of test: cell-based. The following applies: myoII null cells, time course beyond one hour.

A further test deals with AsPC-1 cells. The test can be described thus: Hemi-splenectomy PDAC liver metastasis model. It counts as in vivo, athymic NCr-nu/nu mice. The following applies: 5 mg/ml, 200 μl IP every other day. The method, then: Therefore, the inventors tested 4-HAP in a mouse model for PDAC metastasis. Hemi-splenectomies with 4-HAP pre-treated metastatic AsPC-1 cells were performed on nude mice which were subsequently divided into three groups: control, PBS (200 μl PBS IP injections, every other day), and 4-HAP (5 mg/ml, 200 μl IP injections, every other day). Mice were harvested at 5-weeks post-surgery, when the first mouse expired. Metastasis to the liver was observed and quantified by an in-house Matlab script that determined surface area tumor coverage.
Hemi-splenectomies were performed on athymic NCr-nu/nu mice (Charles River Laboratories) with low passage AsPC-1 cells as previously described. In short, laparotomies were performed on anesthetized mice in which the upper pole of a divided spleen was reinserted into the peritoneum while 1×10^7 AsPC-1 cells prepared in phosphate buffered saline were injected into the lower splenic pole, chased by an equal volume of phosphate buffered saline. The pancreas and splenic vessels were ligated and the peritoneum was closed.
AsPC-1 cells were pretreated with 50 μM 4-HAP or PBS 24 hr prior to injection during hemisplenectomies. […]
Quantifications of mouse livers were performed using a custom-designed Matlab script. […] The percent coverage of tumor was calculated.

The subject of test [3] is AsPC-1 shCTRL and shIIA cells. The test can be described thus: Transwell migration of knockdown lines. It counts as cell-based, human. The procedure:
AsPC-1 cells were plated in 6.5-mm PET membrane transwell inserts with 8-μm pores (Costar #3464) in a 24-well plate at a concentration of 5,000 cells per well. Cells were allowed to adhere overnight in AsPC-1 media. Cell media was then changed to serum-free RPMI 1640 to starve cells for 18 hrs. Following starvation, cells were stimulated by changing media in the top chamber to fresh serum-free RPMI 1640±500 nM 4-HAP and complete AsPC-1 media ±500 nM 4HAP. Cells were then incubated for 24 hrs at 37 degrees C./5% CO2 and then fixed in 4% paraformaldehyde, permeabilized in 0.1% Triton X-100 and stained with 1 μg/ml DAPI. […] A total of five random fields per transwell insert were imaged using a 10× objective (NA) and nuclei were averaged.

Each structure is given as a SMILES string.

T1 sequence (P08799 whole entry S456L): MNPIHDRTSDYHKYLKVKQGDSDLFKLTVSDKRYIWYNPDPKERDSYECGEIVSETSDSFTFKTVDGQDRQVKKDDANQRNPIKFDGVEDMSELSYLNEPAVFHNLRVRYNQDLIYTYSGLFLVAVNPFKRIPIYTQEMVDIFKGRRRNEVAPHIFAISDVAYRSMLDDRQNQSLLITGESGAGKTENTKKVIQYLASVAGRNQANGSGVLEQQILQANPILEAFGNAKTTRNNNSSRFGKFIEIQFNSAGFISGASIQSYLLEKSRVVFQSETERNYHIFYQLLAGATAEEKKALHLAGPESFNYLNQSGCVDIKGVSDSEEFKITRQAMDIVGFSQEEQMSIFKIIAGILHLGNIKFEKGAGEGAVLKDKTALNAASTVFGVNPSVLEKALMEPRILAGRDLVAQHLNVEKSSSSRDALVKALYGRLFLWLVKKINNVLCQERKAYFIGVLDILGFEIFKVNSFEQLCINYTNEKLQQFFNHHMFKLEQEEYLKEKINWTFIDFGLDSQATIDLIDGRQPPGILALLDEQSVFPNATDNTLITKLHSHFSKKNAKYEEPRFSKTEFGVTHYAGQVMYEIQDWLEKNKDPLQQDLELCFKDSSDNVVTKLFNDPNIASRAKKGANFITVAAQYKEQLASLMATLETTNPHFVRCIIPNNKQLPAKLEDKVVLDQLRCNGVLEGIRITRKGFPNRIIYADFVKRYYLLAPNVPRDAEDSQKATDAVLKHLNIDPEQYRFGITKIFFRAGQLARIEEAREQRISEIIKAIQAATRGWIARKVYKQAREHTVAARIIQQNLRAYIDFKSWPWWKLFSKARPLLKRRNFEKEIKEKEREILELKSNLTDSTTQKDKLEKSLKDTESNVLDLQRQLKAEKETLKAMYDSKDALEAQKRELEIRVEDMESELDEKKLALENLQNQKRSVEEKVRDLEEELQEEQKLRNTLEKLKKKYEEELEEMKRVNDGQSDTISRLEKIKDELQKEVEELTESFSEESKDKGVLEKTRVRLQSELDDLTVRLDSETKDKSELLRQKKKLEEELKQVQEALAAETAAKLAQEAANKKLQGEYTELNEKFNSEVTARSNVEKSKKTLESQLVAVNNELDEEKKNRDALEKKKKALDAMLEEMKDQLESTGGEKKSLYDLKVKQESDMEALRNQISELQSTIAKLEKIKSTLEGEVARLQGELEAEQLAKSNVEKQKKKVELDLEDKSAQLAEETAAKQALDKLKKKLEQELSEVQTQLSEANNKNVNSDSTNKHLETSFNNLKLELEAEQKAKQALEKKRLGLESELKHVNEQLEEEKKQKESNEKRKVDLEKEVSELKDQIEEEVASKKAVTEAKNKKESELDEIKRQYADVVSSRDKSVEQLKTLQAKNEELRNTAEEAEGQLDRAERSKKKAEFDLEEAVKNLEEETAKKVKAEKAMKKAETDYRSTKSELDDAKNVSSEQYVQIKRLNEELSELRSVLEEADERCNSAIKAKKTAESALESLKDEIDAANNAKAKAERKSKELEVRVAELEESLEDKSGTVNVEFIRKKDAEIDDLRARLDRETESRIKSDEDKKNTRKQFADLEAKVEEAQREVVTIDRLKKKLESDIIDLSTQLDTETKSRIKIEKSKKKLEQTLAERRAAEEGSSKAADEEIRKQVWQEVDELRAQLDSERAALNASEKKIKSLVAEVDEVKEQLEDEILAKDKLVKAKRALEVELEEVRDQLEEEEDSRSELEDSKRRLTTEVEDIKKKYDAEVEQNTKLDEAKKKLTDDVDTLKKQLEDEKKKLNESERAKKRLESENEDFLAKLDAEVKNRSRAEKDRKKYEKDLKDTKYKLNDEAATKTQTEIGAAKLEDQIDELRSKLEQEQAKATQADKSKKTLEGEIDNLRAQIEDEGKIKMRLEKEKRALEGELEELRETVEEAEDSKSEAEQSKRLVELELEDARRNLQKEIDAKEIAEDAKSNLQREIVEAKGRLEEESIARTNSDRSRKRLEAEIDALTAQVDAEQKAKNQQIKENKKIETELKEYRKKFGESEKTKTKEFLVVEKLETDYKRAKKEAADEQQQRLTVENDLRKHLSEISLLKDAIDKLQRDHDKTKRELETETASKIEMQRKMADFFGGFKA

As to `CC(=O)c1ccc(O)cc1` [4-HAP, 4-hydroxyacetophenone], in the test on myosin II [1], the “myosin accumulation, GFP-S1 motor domain” value is “did not show an accumulation response”. In addition, on myosin II [2], the “myosin accumulation, GFP-S456L myosin” value was “did not show a response to 4-HAP”. For the same molecule, in the test with AsPC-1 cells, the “tumor formation (liver weights and tumor coverage)” value was “reduction in tumor formation”. Also, in the test on AsPC-1 cells (5-weeks post-surgery), the “reduction in surface tumor load (liver tumor coverage)” value is recorded as 50%. In addition, the transwell migration result in test [3] is recorded as “moderate dose-dependence reduction of transwell migration”.

The values are drawn from patent publication US11834401B2, “Treating and preventing diseases by modulating cell mechanics” (THE JOHNS HOPKINS UNIVERSITY, priority 2013, dated 2023).
